One experiment deals with XMRV. Kind of experiment: XMRV-replication in acutely infected CD4+ T lymphocytes from healthy individuals (ELISA of culture supernatants). Format: cell-based. Conditions: freshly isolated CD4+ T cells treated with 10, 100 and 1000 nM then infected with XMRV; 96 h post-infection; compared to untreated controls. The protocol: First, the activity of 2-5A^N1B on XMRV-replication is tested in CD4^+ T lymphocytes purified from healthy individuals. To determine the effective dose of 2-5A^N1B during acute XMRV infection, freshly isolated CD4^+ T cells are treated with three concentrations of 2-5A^N1B (10, 100 and 1000 nM) and then infected with XMRV. XMRV-replication is assessed in culture supernatants by ELISA.
(In general: An ELISA detects its analyte on a solid surface through an enzyme-linked reagent.)

The test system of the next experiment is wild-type XMRV. Kind of experiment: XMRV replication in chronically infected CD4+ cells derived from XMRV-positive individuals (ELISA of supernatants). The class given is cell-based. Conditions: purified CD4+ T lymphocytes from XMRV-positive adults; in vitro; compared to untreated cells. The protocol:
Secondly, the activity of 2-5A^N1B is tested on chronically infected cells derived from XMRV-positive individuals. XMRV-positive adults are recruited from the clinic. The antiviral response to 2-5A^N1B in vitro is assessed by ELISA in the supernatants of cultured CD4+ cells.

Consider “N^1-benzyl-3′-deoxyadenylyl-(2′-5′)-3′-deoxyadenylyl-(2′-5′)-3′-deoxyadenylyl-(2′-2″)—N^9-[(2″-hydroxy-ethoxy)-methyl]-adenine [2-5A^N1B]”, for which the XMRV-replication result in the experiment with XMRV was “significant decrease”. Besides, the “replication of wild-type XMRV” value in the experiment on wild-type XMRV is “significantly inhibits”.

Source of the values: patent US8916535B2, “Use of 2′,5′-oligoadenylate derivative compounds” (Protea Biopharma N.V., priority 2010, dated 2014).
